# Like-named read-outs stand apart in the source and are kept apart here.
# How the values were obtained:
# [1] = in vitro; settings: for PAMPA-BBB log Pe (cm s−1): pH 7.4
# Protocol: The PAMPA-BBB assay was conducted according to the methodology followed by Di et al., with some modifications as described below ([15]). First, the BBB solution was prepared by dissolving 8 mg of PBL and 4 mg of cholesterol in 600 μl of n-dodecane. The initial donor solution was prepared by mixing 1 ml of extract (10 mg ml^−1 in EtOH) with 1 ml of buffer (PBS, pH = 7.4, 10 mM). The filter membrane of the donor plate was carefully coated with 5 μl of BBB solution. The acceptor plate was filled with 350 μl of buffer, and the donor plate was carefully assembled over the acceptor plate like a “sandwich.” Finally, the donor plate was filled with 350 μl of donor solution, covered, and incubated for 4 h at 37°C in the dark. After incubation time, 300 μl of the solution was taken from both plates, transferred to separate vials, and dried in the SpeedVac system at 40°C and 13 mbar pressure. Dried acceptor and donor solution were dissolved in 50 μl of pure EtOH before subjecting to UHPLC-Q-TOF-MS analysis. Permeability across in vitro BBB of the bioactive compound was measured according to Equation (1) ([25]), with some modifications in concentration rates.
# (1) Pe=-ln[1-CA(t)/Ce]/A^*(1/VD+1/VA)^*t
# Cequilibrium was calculated according to the following equation ([2]):
# (2) Cequilibrium=[CD(t)*VD+CA(t)*VA]/(VD+VA)
# [2] = cited from earlier work
# [3] = ref PubChem database, cited from earlier work
# [4] = PAMPA, pH 7.4, PAMPA-BBB log Pe (cm s−1)
# [5] = compounds from Ginkgo biloba L. extract, ref Könczöl et al. ([69])
# [6] = compounds identified in LPLE extract
# [7] = PAMPA, pH 7.4, PAMPA-BBB log Pe (cm s−1), compound within ASFE extract, 4 h, 37°C, PBS pH 7.4
# [8] = PAMPA, pH 7.4, PAMPA-BBB log Pe (cm s−1), compound within KD extract, 4 h, 37°C, PBS pH 7.4
# [9] = PAMPA, pH 7.4, PAMPA-BBB log Pe, compound within LPLE (Nothofagus pumilio, lenga PLE extract), N.D = not detected in acceptor
# [10] = compounds of RSFE extract, octanol-water partition coefficient
# [11] = compound within LPLE (Nothofagus pumilio, lenga PLE extract), classes based on Könczöl et al.
molecule,measurement,setting,value
O=c1cc(-c2ccc(O)cc2)oc2cc(O)cc(O)c12 [Apigenin],Papp,[1]; [4],26.3 ×10⁻⁶ cm/s
same,Cross BBB potential,[1]; compound within RSFE extract,++ (log Pe > −5.5)
same,PAMPA-BBB logPe,[2]; [5],−5.35
O=c1c(O)c(-c2ccc(O)cc2)oc2cc(O)cc(O)c12 [Kaempferol],Log P,[3]; [6],1.9
same,Log P,[3]; compounds of ASFE extract,1.9
same,Log P,[3]; compounds of KD extract,1.9
same,Papp at 4 h,[1]; [7],2.29 ×10⁻⁶ cm/s
same,Papp at 4 h,[1]; [8],14.8 ×10⁻⁶ cm/s
same,Papp at 4 h,[1]; [9],21.4 ×10⁻⁶ cm/s
same,PAMPA-BBB logPe,[2]; PAMPA,−5.13
COc1cc(-c2oc3cc(O)cc(O)c3c(=O)c2O)ccc1O [Isorhamnetin],Log P,[3]; [10],1.9
same,Cross BBB potential,[1]; PAMPA,+++ (key: -: not detected in acceptor; +: log Pe > −6.5; ++: log Pe > −5.5; +++: log Pe > −4.5)
same,Papp,[1]; [4],49 ×10⁻⁶ cm/s
same,PAMPA-BBB logPe,[2]; [5],−5.46
O=C(O)c1ccc(O)c(O)c1 [Protocatechuic acid],Log P,[3]; [6],1.1
same,Log P,[3]; compounds of ASFE extract,1.1
same,Log P,[3]; compounds of KD extract,1.1
same,Cross BBB potential,[1]; PAMPA,+++
same,PAMPA-BBB log Pe (cm s−1),"[1]; PAMPA, 4 h",−3.92 cm s−1
same,Papp at 4 h,[1]; [4],148 ×10⁻⁶ cm/s
same,Papp at 4 h,[1]; [8],105 ×10⁻⁶ cm/s
same,Papp at 4 h,[1]; [9],138 ×10⁻⁶ cm/s
Kalandaigremoside B,Log P,[3]; compounds of KD extract,7.2
same,Cross BBB potential,[1]; compound within KD extract,-
"COc1ccc2c3c1O[C@H]1C[C@@H](O)C=C[C@@]31CCN(C)C2 [galantamine, reference compound]",logPe (cm s^−1),"[2]; therapeutic drug for comparison, ref [70]",–5.35 ± 0.02 cm s^−1
CC(=O)O[C@@H]1C[C@H](O)C[C@@]2(O)CC[C@@H]3[C@@H]4[C@@H](C[C@]5(C)[C@@H](c6ccc(=O)oc6)CC[C@]35O)O[C@H](O)[C@]412 [Bryophyllin B],Log P,[3]; compounds of KD extract,0.6
same,Cross BBB potential,[1]; compound within KD extract,-
COc1cc(C(=O)O)cc(OC)c1O [Syringic acid],Log P,[3]; [6],1.0
same,Log P,[3]; compounds of ASFE extract,1.0
same,Log P,[3]; compounds of KD extract,1.0
same,Log P,[3]; [10],1.0
same,Papp at 4 h,[1]; [9],0.145 ×10⁻⁶ cm/s
same,Cross BBB potential,[1]; compound within RSFE extract,-
COC(=O)[C@]12CCCC(C)(C)[C@@H]1CCc1cc(C(C)C)c(O)c(O)c12 [Methyl carnosate],Log P,[3]; [10],5.2
same,Cross BBB potential,[1]; PAMPA,++
same,Papp at 4 h,[1]; [4],5.5 ×10⁻⁶ cm/s
Kalandaigremoside C,Log P,[3]; compounds of KD extract,7.2
same,Cross BBB potential,[1]; compound within KD extract,-
C=C1CC[C@]2(C(=O)O)CC[C@]3(C)C(=CC[C@@H]4[C@@]5(C)CC[C@H](O)C(C)(C)[C@@H]5CC[C@]43C)[C@@H]2[C@H]1C [Micromeric acid],Log P,[3]; [10],6.5
same,Cross BBB potential,[1]; compound within RSFE extract,-
Caffeoylshikimic acid,Log P,[3]; compounds of T33 extract,0.9
same,Cross BBB potential,[1]; PAMPA,++
same,PAMPA-BBB log Pe (cm s−1),"[1]; PAMPA, 4 h",−5.46 cm s−1
COc1c(O)cc2oc(-c3ccc(O)c(O)c3)c(O)c(=O)c2c1O [Patuletin],Log P,[3]; compounds of KD extract,2.1
same,Cross BBB potential,[1]; compound within KD extract,-
COc1cc(/C=C/C(=O)O)cc(OC)c1O [Sinapic acid],Log P,[3]; [6],1.5
same,Log P,[3]; compounds of ASFE extract,1.5
same,Log P,[3]; compounds of KD extract,1.5
same,Log P,[3]; compounds of T33 extract,1.5
same,Cross BBB potential,[1]; compound within ASFE extract,-
same,Cross BBB potential,[1]; compound within KD extract,-
same,Cross BBB potential,[1]; compound within T33 extract,-
COc1cc2oc(-c3ccc(O)cc3)cc(=O)c2c(O)c1OC [Crisimaritin],Log P,[3]; [10],2.0
same,Cross BBB potential,[1]; PAMPA,+++
same,PAMPA-BBB log Pe (cm s−1),"[1]; PAMPA, 4 h",−4.36 cm s−1
CC(C)c1cc2c(c(O)c1O)[C@@]13CCCC(C)(C)[C@@H]1C[C@@H]2OC3 [20-Deoxocarnosol],Log P,[3]; [10],4.6
same,Cross BBB potential,[1]; compound within RSFE extract,-
"Bersaldegenin-1,3,5-orthoacetate",Log P,[3]; compounds of KD extract,4.87
same,Cross BBB potential,[1]; compound within KD extract,-
CC(C)c1cc2c(cc1O)[C@@]1(C)CCCC(C)(C)[C@@H]1CC2=O [Sugiol],Log P,[3]; [10],5.6
same,Cross BBB potential,[1]; PAMPA,++
same,Papp at 4 h,[1]; [4],4.57 ×10⁻⁶ cm/s
CC(C)c1cc2c(c(O)c1O)C(=O)C1CCCC(C)(C)C1CC2 (stereo not drawn) [Rosmaridiphenol],Log P,[3]; [10],5.9
same,Cross BBB potential,[1]; PAMPA,+
same,PAMPA-BBB log Pe (cm s−1),"[1]; PAMPA, 4 h",−5.55 cm s−1
COc1ccc(-c2cc(=O)c3c(O)c(O)c(OC)cc3o2)cc1 [Ladanein],Log P,[3]; [10],2.0
same,Papp at 4 h,"[1]; PAMPA, pH 7.4, PAMPA-BBB log Pe (cm s−1), compound within RSFE extract, 4 h, 37°C, PBS pH 7.4",141 ×10⁻⁶ cm/s
same,Cross BBB potential,[1]; compound within RSFE extract,+++ (log Pe > −4.5)
COc1c(O[C@@H]2O[C@H](CO)[C@@H](O)[C@H](O)[C@H]2O)cc2oc(-c3ccc(O)cc3)cc(=O)c2c1O [Homoplantaginin],Log P,[3]; [10],0.8
same,Cross BBB potential,[1]; PAMPA,+++
same,PAMPA-BBB log Pe (cm s−1),"[1]; PAMPA, 4 h",−4.24 cm s−1
O=C(/C=C/c1ccc(O)c(O)c1)c1ccc(O)cc1O [Butein],Log P,[3]; [6],2.8
same,Log P,[3]; compounds of ASFE extract,2.8
same,Papp at 4 h,[1]; [7],2.19 ×10⁻⁶ cm/s
same,Papp at 4 h,[1]; [9],16.6 ×10⁻⁶ cm/s
same,Cross BBB potential,[1]; compound within ASFE extract,+ (log Pe > −6.5)
same,Cross BBB potential,[1]; [11],++ (log Pe > −5.5)
O=c1c(-c2ccc(O)cc2)coc2c([C@@H]3O[C@H](CO)[C@@H](O)[C@H](O)[C@H]3O)c(O)c([C@@H]3O[C@H](CO)[C@@H](O)[C@H](O)[C@H]3O)c(O)c12 [Paniculatin],Log P,[3]; compounds of KD extract,−2.3
same,Cross BBB potential,[1]; compound within KD extract,-
CC(=O)OC(C)(C)[C@@H]1CC[C@@]2(C)CO[C@]3(C)C=CO[C@]23C1 [Phytuberin],Log P,[3]; compounds of T33 extract,2.3
same,Cross BBB potential,[1]; PAMPA,++
same,PAMPA-BBB log Pe (cm s−1),"[1]; PAMPA, 4 h",−4.51 cm s−1
COc1cc(/C=C/C=O)cc(OC)c1O [Sinapaldehyde],Log P,[3]; [6],1.4
same,Log P,[3]; compounds of ASFE extract,1.4
same,Cross BBB potential,[1]; compound within ASFE extract,-
O=C(/C=C/c1ccc(O)c(O)c1)O[C@@H](C(=O)O)[C@@H](O)C(=O)O [Caftaric acid],Log P,[3]; compounds of ASFE extract,0.1
same,Cross BBB potential,[1]; PAMPA,-
O=C(O)c1cc(O)c(O)c(Oc2c(O)c(=O)c3oc(O)c4cc(O)c(=O)c5oc(O)c2c3c45)c1 [Sanguisorbic acid dilactone],Log P,[3]; [6],−0.4
same,Log P,[3]; compounds of ASFE extract,−0.4
same,Cross BBB potential,[1]; [11],-
Methydihydrojasmonic acid,Log P,[3]; [10],1.6
same,Cross BBB potential,[1]; PAMPA,+++
same,PAMPA-BBB log Pe (cm s−1),"[1]; PAMPA, 4 h",−3.96 cm s−1
